Measurements: patent US20260256925A1, “INDAZOLE DERIVATIVES AS ESTROGEN RECEPTOR DEGRADERS” (REGENTS OF THE UNIVERSITY OF MICHIGAN, priority 2022, published 2026)

Assays:
[1] = Cell growth assay, WST-8 (compounds B1-B126); assay type: cell-based; details: 96 h; T47D cell line, WST-8, 4 days; read-out: Cell growth inhibition in T47D cell line IC50
Method in brief: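 Read-out is WST-8 absorbance at 450 nm (2.5 h, 37° C) as a fraction of vehicle control, from three separate repeats. Compound exposure lasted 4 days, starting one day after plating 1500 cells/well.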

ER = biological target: T1, ER (Homo sapiens, UniProt P03372); assay: In-cell western blot analysis, relative ER percentage (compounds B1-B126); assay type: cell-based; details: ER degradation, 16 hours, read-out: ICW DC50
T1 construct: endogenous in cells; probably T47D or MCF-7
T1 sequence (P03372 1-595): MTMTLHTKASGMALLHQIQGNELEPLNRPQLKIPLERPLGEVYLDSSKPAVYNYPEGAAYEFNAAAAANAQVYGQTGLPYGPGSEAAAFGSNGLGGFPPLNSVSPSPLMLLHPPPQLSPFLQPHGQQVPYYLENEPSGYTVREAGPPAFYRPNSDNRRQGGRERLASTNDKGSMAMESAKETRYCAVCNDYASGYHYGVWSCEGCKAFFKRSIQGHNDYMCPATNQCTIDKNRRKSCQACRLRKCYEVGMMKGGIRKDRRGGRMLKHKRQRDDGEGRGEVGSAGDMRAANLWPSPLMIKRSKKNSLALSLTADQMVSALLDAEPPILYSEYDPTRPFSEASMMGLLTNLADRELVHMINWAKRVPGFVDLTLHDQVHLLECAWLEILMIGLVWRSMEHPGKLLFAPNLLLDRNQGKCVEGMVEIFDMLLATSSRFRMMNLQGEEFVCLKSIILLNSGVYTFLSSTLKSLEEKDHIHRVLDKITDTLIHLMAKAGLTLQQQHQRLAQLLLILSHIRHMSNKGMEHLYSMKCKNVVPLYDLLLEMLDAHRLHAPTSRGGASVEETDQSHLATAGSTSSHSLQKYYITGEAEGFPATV
Method in brief: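 Readout was a two-colour infrared in-cell western of formaldehyde-fixed cells after 16 h compound exposure at 0.5% DMSO, with 40,000 or 10,000 cells/well plated the previous night. Relative ER percentage compares treated wells against untreated/DMSO-treated wells taken as 100%.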

Row | Structure (SMILES) | DC50 (ER) [nM] | IC50 [1] [nM]
1 | C[C@@H]1Cc2c(ccc3[nH]ncc23)[C@@H](c2ccc(N3CCC4(CCN(C(=O)CN5Cc6cc7c(cc6C5)C(=O)N(C5CCC(=O)NC5=O)C7=O)CC4)CC3)cn2)N1CC(F)F (stereo partly drawn) [Compound B49, 6-(2-(9-(6-((6S,8R)-7-(2,2-difluoroethyl)-8-methyl-6,7,8,9-tetrahydro-3H-pyrazolo[4,3-f]isoquinolin-6-yl)pyridin-3-yl)-3,9-diazaspiro[5.5]undecan-3-yl)-2-oxoethyl)-2-(2,6-dioxopiperidin-3-yl)-6,7-dihydropyrrolo[3,4-f]isoindole-1,3(2H,5H)-dione] | 10 to 100 | > 10
2 | C[C@@H]1Cc2c(ccc3[nH]ncc23)[C@@H](c2c(F)cc(N3CCC(CN4CCN5c6cc7c(cc6N(C)C[C@@H]5C4)C(=O)N(C4CCC(=O)NC4=O)C7)CC3)cc2F)N1CC(F)F (stereo partly drawn) [Compound B29, 3-((S)-3-((1-(4-((6S,8R)-7-(2,2-difluoroethyl)-8-methyl-6,7,8,9-tetrahydro-3H-pyrazolo[4,3-f]isoquinolin-6-yl)-3,5-difluorophenyl)piperidin-4-yl)methyl)-6-methyl-8-oxo-2,3,4,4a,5,6,8,10-octahydropyrazino[1,2-a]pyrrolo[3,4-g]quinoxalin-9(1H)-yl)piperidine-2,6-dione] | < 10 | < 1
3 | C[C@@H]1Cc2c(ccc3[nH]ncc23)[C@@H](c2c(F)cc(N3CC4(CCN(CC(=O)N5CCN6c7cc8c(cc7OC[C@@H]6C5)C(=O)N(C5CCC(=O)NC5=O)C8)C4)C3)cc2F)N1CC(F)F (stereo partly drawn) [Compound B40, 3-((S)-3-(2-(2-(4-((6S,8R)-7-(2,2-difluoroethyl)-8-methyl-6,7,8,9-tetrahydro-3H-pyrazolo[4,3-f]isoquinolin-6-yl)-3,5-difluorophenyl)-2,6-diazaspiro[3.4]octan-6-yl)acetyl)-8-oxo-1,2,3,4,4a,5,8,10-octahydro-9H-pyrazino[1′,2′:4,5][1,4]oxazino[2,3-f]isoindol-9-yl)piperidine-2,6-dione] | < 10 | < 1
4 | C[C@@H]1Cc2c(ccc3[nH]ncc23)[C@@H](c2c(F)cc(NC3CC4(C3)CN(C(=O)CN3Cc5cc6c(cc5C3)C(=O)N(C3CCC(=O)NC3=O)C6=O)C4)cc2F)N1CC(F)F (stereo partly drawn) [Compound B44, 6-(2-(6-((4-((6S,8R)-7-(2,2-difluoroethyl)-8-methyl-6,7,8,9-tetrahydro-3H-pyrazolo[4,3-f]isoquinolin-6-yl)-3,5-difluorophenyl)amino)-2-azaspiro[3.3]heptan-2-yl)-2-oxoethyl)-2-(2,6-dioxopiperidin-3-yl)-6,7-dihydropyrrolo[3,4-f]isoindole-1,3(2H,5H)-dione] | < 10 | < 1
5 | C[C@@H]1Cc2c(ccc3[nH]ncc23)[C@@H](c2c(F)cc(C3CCN(C(=O)CN4CCN5c6cc7c(cc6OC[C@@H]5C4)C(=O)N(C4CCC(=O)NC4=O)C7)CC3)cc2F)N1CC(F)F (stereo partly drawn) [Compound B28, 3-((S)-3-(2-(4-(4-((6S,8R)-7-(2,2-difluoroethyl)-8-methyl-6,7,8,9-tetrahydro-3H-pyrazolo[4,3-f]isoquinolin-6-yl)-3,5-difluorophenyl)piperidin-1-yl)-2-oxoethyl)-8-oxo-1,2,3,4,4a,5,8,10-octahydro-9H-pyrazino[1′,2′:4,5][1,4]oxazino[2,3-f]isoindol-9-yl)piperidine-2,6-dione] | 10 to 100 | < 1
6 | C[C@@H]1Cc2c(ccc3[nH]ncc23)[C@@H](c2c(F)cc(N3CCC4(CCN(C(=O)CN5CCN6c7cc8c(cc7OC[C@@H]6C5)C(=O)N(C5CCC(=O)NC5=O)C8)CC4)C3)cc2F)N1CC(F)F (stereo partly drawn) [Compound B23, 3-((S)-3-(2-(2-(4-((6S,8R)-7-(2,2-difluoroethyl)-8-methyl-6,7,8,9-tetrahydro-3H-pyrazolo[4,3-f]isoquinolin-6-yl)-3,5-difluorophenyl)-2,8-diazaspiro[4.5]decan-8-yl)-2-oxoethyl)-8-oxo-1,2,3,4,4a,5,8,10-octahydro-9H-pyrazino[1′,2′:4,5][1,4]oxazino[2,3-f]isoindol-9-yl)piperidine-2,6-dione] | < 10 | < 1
7 | C[C@@H]1Cc2c(ccc3[nH]ncc23)[C@@H](c2c(F)cc(N3CC4(CCN(CC(=O)N5CCN6c7cc8c(cc7OC[C@@H]6C5)C(=O)N(C5CCC(=O)NC5=O)C8)CC4)C3)cc2F)N1CC(F)F (stereo partly drawn) [Compound B33, 3-((S)-3-(2-(2-(4-((6S,8R)-7-(2,2-difluoroethyl)-8-methyl-6,7,8,9-tetrahydro-3H-pyrazolo[4,3-f]isoquinolin-6-yl)-3,5-difluorophenyl)-2,7-diazaspiro[3.5]nonan-7-yl)acetyl)-8-oxo-1,2,3,4,4a,5,8,10-octahydro-9H-pyrazino[1′,2′:4,5][1,4]oxazino[2,3-f]isoindol-9-yl)piperidine-2,6-dione] | < 10 | < 1

Second part, led by results:

Row | DC50 (ER) [nM] | Structure (SMILES) | IC50 [1] [nM]
8 | 10 to 100 | COc1cc(N2CC3(CCC(CN4CCN5c6ccc7c(c6OC[C@@H]5C4)CN(C4CCC(=O)NC4=O)C7=O)CC3)C2)ccc1[C@@H]1c2ccc3[nH]ncc3c2C[C@@H](C)N1CC(F)F (stereo partly drawn) [Compound B85, 3-((S)-7-((2-(4-((6S,8R)-7-(2,2-difluoroethyl)-8-methyl-6,7,8,9-tetrahydro-3H-pyrazolo[4,3-f]isoquinolin-6-yl)-3-methoxyphenyl)-2-azaspiro[3.5]nonan-7-yl)methyl)-1-oxo-1,3,5,5a,6,7,8,9-octahydro-2H-pyrazino[1′,2′:4,5][1,4]oxazino[2,3-e]isoindol-2-yl)piperidine-2,6-dione] | > 10
9 | < 10 | COc1cc(N2CCC3(CC2)OCC(CN2CCN4c5cc6c(cc5OC[C@H]4C2)C(=O)N(C2CCC(=O)NC2=O)C6)CO3)ccc1[C@@H]1c2ccc3[nH]ncc3c2C[C@@H](C)N1CC(F)F (stereo partly drawn) [Compound B115, 3-((R)-3-((9-(4-((6S,8R)-7-(2,2-difluoroethyl)-8-methyl-6,7,8,9-tetrahydro-3H-pyrazolo[4,3-f]isoquinolin-6-yl)-3-mcthoxyphenyl)-1,5-dioxa-9-azaspiro[5.5]undecan-3-yl)methyl)-8-oxo-1,2,3,4,4a,5,8,10-octahydro-9H-pyrazino[1′,2′:4,5][1,4]oxazino[2,3-f]isoindol-9-yl)piperidine-2,6-dione] | < 1
10 | > 100 | COc1cc(N2CCC3(CC2)CC(CN2CCN4c5cc6c(cc5OC[C@H]4C2)C(=O)N(C2CCC(=O)NC2=O)C6)C3)ccc1[C@@H]1c2ccc3[nH]ncc3c2C[C@@H](C)N1CC(F)F (stereo partly drawn) [Compound B55, 3-((R)-3-((7-(4-((6S,8R)-7-(2,2-difluoroethyl)-8-methyl-6,7,8,9-tetrahydro-3H-pyrazolo[4,3-f]isoquinolin-6-yl)-3-methoxyphenyl)-7-azaspiro[3.5]nonan-2-yl)methyl)-8-oxo-1,2,3,4,4a,5,8,10-octahydro-9H-pyrazino[1′,2′:4,5][1,4]oxazino[2,3-f]isoindol-9-yl)piperidine-2,6-dione] | 1 to 10
11 | > 100 | C[C@@H]1Cc2c(ccc3[nH]ncc23)[C@@H](c2ccc(N3CCC4(CC3)CC(CN3CCN5c6ccc(C(=O)N[C@H]7CCC(=O)NC7=O)nc6OC[C@H]5C3)C4)cn2)N1CC(F)(F)F [Compound B89, (R)-N-((S)-2,6-dioxopiperidin-3-yl)-3-((7-(6-((6S,8R)-8-methyl-7-(2,2,2-trifluoroethyl)-6,7,8,9-tetrahydro-3H-pyrazolo[4,3-f]isoquinolin-6-yl)pyridin-3-yl)-7-azaspiro[3.5]nonan-2-yl)methyl)-1,2,3,4,4a,5-hexahydropyrazino[1,2-d]pyrido[2,3-b][1,4]oxazine-8-carboxamide] | > 10
12 | < 10 | C[C@@H]1Cc2c(ccc3[nH]ncc23)[C@@H](c2ccc(N3CC4(CCC(CN5CCN6c7ccc8c(c7OC[C@H]6C5)CN(C5CCC(=O)NC5=O)C8=O)CC4)C3)cn2)N1CC(F)(F)F (stereo partly drawn) [Compound B108, 3-((R)-7-((2-(6-((6S,8R)-8-methyl-7-(2,2,2-trifluoroethyl)-6,7,8,9-tetrahydro-3H-pyrazolo[4,3-f]isoquinolin-6-yl)pyridin-3-yl)-2-azaspiro[3.5]nonan-7-yl)methyl)-1-oxo-1,3,5,5a,6,7,8,9-octahydro-2H-pyrazino[1′,2′:4,5][1,4]oxazino[2,3-e]isoindol-2-yl)piperidine-2,6-dione] | < 1
13 | > 100 | C[C@@H]1Cc2c(ccc3[nH]ncc23)[C@@H](c2ccc(N3CCC4(CC3)CC(CN3CCN5c6ccc(C(=O)N(C)C7CCC(=O)NC7=O)nc6OC[C@H]5C3)C4)cn2)N1CC(F)(F)F (stereo partly drawn) [Compound B92, (4aR)-N-(2,6-dioxopiperidin-3-yl)-N-methyl-3-((7-(6-((6S,8R)-8-methyl-7-(2,2,2-trifluoroethyl)-6,7,8,9-tetrahydro-3H-pyrazolo[4,3-f]isoquinolin-6-yl)pyridin-3-yl)-7-azaspiro[3.5]nonan-2-yl)methyl)-1,2,3,4,4a,5-hexahydropyrazino[1,2-d]pyrido[2,3-b][1,4]oxazine-8-carboxamide] | > 10
